For this experiment, the system named is HL60 cells. The experiment is described as follows: Inhibition effect of HL60 cell line growth (MTT, 3 days). Type of experiment: cell-based. The conditions noted are these: Homo sapiens, HL-60, 72 h, read-out: HL60 Growth Inhibition. On the procedure:
1. Inhibition Effect of HL60 Cell Line Growth
A 10% FBS-contained RPMI1640 badge was used for culturing HL60 cells. The test substance was prepared by dissolving in DMSO to a concentration of 10 mg/ml, and continuously diluting with PBS to a final concentration of 100 μg/ml to 0.03 μg/ml. In a 96-well microplate, 180 μl of the badge containing 6.0×10^4 cells/ml of cells and 20 μl of continuously diluted test substance were added. The mixture was cultured at 37° C. with 5% CO2 atmosphere for 3 days. After completion of the cultivation, 50 μl of a solution of 1.25 mg/ml MTT (3-(4,5-dimethylthiazol-2-yl)-2,5-diphenyltetrazolium bromide) dissolved in PBS was added to all wells, and the resulting mixture was reacted at 37° C. for 3 hours. Thus formed formazan crystals were dissolved in 150 μl of DMSO, and an absorbance was measured at 570 nm.

The mark [1] stands for this setting: HL60 cells, 3 days culture, MTT, absorbance 570 nm.

From patent US8053439B2, “Benzophenone derivatives useful for inhibiting formation of microtubule” (Chong Kun Dang Pharmaceutical Corp., priority 2006, dated 2011) come the findings set out here.

Like-named read-outs stand apart in the source and are kept apart here.

Turning to `COc1cc(C(=O)c2cc(-c3ccco3)ccc2OS(C)(=O)=O)cc(OC)c1OC` [Compound 241, methanesulfonic acid 4-(furan-2-yl)-2-(3,4,5-trimethoxybenzoyl)phenyl], the IC50 under setting [1] is 90 nM. Turning to `COc1cc(C(=O)c2cc(-c3ccco3)ccc2-n2ccnc2)cc(OC)c1OC` [Compound 354, (5-(furan-2-yl)-2-(1H-imidazol-1-yl)phenyl)(3,4,5-trimethoxyphenyl)methanone], under setting [1], the IC50 stood at 110 nM.

For `COc1cc(C(=O)c2cc(-c3ccco3)ccc2N)cc(OC)c1OC` [Compound 225, (2-amino-5-(furan-2-yl)phenyl)(3,4,5-trimethoxyphenyl)methanone], the IC50 under setting [1] is 58 nM. Turning to `COc1cc(C(=O)c2cc(-c3nccs3)ccc2-n2cnnn2)cc(OC)c1OC` [Compound 401, (2-(1H-tetrazol-1-yl)-5-(thiazol-2-yl)phenyl)(3,4,5-trimethoxyphenyl)methanone], the IC50 under setting [1] is 30 nM. In the case of `COc1cc(C(=O)c2cc(-c3ccco3)ccc2NS(C)(=O)=O)cc(OC)c1OC` [Compound 235, N-(4-(furan-2-yl)-2-(3,4,5-trimethoxybenzoyl)phenyl)methanesulfonamide], the IC50 under setting [1] amounted to 280 nM. On the same count and under the same terms, in the case of `COc1cc(C(=O)c2cc(-c3nccs3)ccc2-c2cnco2)cc(OC)c1OC` [Compound 375, (2-(oxazol-5-yl)-5-(thiazol-2-yl)phenyl)(3,4,5-trimethoxyphenyl)methanone] it was 40 nM. Turning to `COc1ccc(-c2ccco2)cc1C(=O)c1cc(CO)c(OC)c(OC)c1` [Compound 249, (5-(furan-2-yl)-2-methoxyphenyl)(3-(hydroxymethyl)-4,5-dimethoxyphenyl)methanone], the IC50 under setting [1] stood at 120 nM. In the case of `COc1cc(C(=O)c2cc(-c3cccc(NS(C)(=O)=O)c3)ccc2F)cc(OC)c1OC` [Compound 486, N-[4′-fluoro-3′-(3,4,5-trimethoxybenzoyl)-biphenyl-3-yl]-methanesulfonamide], the IC50 under setting [1] stood at 160 nM. `COc1cc(C(=O)c2ccc(-c3csc(N)n3)cc2)cc(OC)c1OC` [Compound 571, (4-(2-aminothiazol-4-yl)phenyl)(3,4,5-trimethoxyphenyl)methanone]: the IC50 under setting [1] is 110 nM. Still for that read-out and setting: for `COc1cc(C(=O)c2ccc(-c3csc(CO)n3)cc2-n2cncn2)cc(OC)c1OC` [Compound 564, (4-(2-(hydroxymethyl)thiazol-4-yl)-2-(1H-1,2,4-triazol-1-yl)phenyl)(3,4,5-trimethoxyphenyl)methanone] the value was 90 nM; for `COc1cc(C(=O)c2ccc(-c3cccc(N)c3)cc2-n2cncn2)cc(OC)c1OC` [Compound 525, (3′-amino-3-(1H-1,2,4-triazol-1-yl)biphenyl-4-yl)(3,4,5-trimethoxyphenyl)methanone], 90 nM. Same read-out and setting: for `COc1cc(C(=O)c2cc(-c3ccco3)ccc2[N+](=O)[O-])cc(OC)c1OC` [Compound 224, (5-(furan-2-yl)-2-nitrophenyl)(3,4,5-trimethoxyphenyl) methanone] the value was 110 nM; for `COc1cc(C(=O)c2cc(-c3ccccn3)ccc2NCCCO)cc(OC)c1OC` [Compound 380, (2-(3-hydroxypropylamino)-5-(pyridin-2-yl)phenyl)(3,4,5-trimethoxyphenyl)methanone], 110 nM. For the compound `COc1cc(C(=O)c2cc(-c3ccsc3)ccc2N)cc(OC)c1OC` [Compound 301, (2-amino-5-(thiophen-3-yl)phenyl)(3,4,5-trimethoxyphenyl)methanone], the IC50 under setting [1] turned out to be 80 nM. The same measure, in the same setting: in the case of `COc1ccc(-c2ccc(OC)c(C(=O)c3cc(OC)c(OC)c(OC)c3)c2)cc1` [Compound 213, (4,4′-dimethoxybiphenyl-3-yl)(3,4,5-trimethoxyphenyl)methanone] it was 137 nM. Take `COc1cc(C(=O)c2cc(-c3ccco3)ccc2-n2cncn2)cc(OC)c1OC` [Compound 322, (5-(furan-2-yl)-2-(1H-1,2,4-triazol-1-yl)phenyl)(3,4,5-trimethoxyphenyl)methanone]: under setting [1], the IC50 was 170 nM. Regarding `COc1cc(C(=O)c2cc(-c3csc(C)n3)ccc2-n2cncn2)cc(OC)c1OC` [Compound 596, (5-(2-methylthiazol-4-yl)-2-(1H-1,2,4-triazol-1-yl)phenyl)(3,4,5-trimethoxyphenyl)methanone], under setting [1], the IC50 is 230 nM. With `COc1cc(C(=O)c2cc(-c3nccs3)ccc2C(O)CO)cc(OC)c1OC` (centres unmarked) [Compound 372, (2-(1,2-dihydroxyethyl)-5-(thiazol-2-yl)phenyl)(3,4,5-trimethoxyphenyl)methanone], the IC50 under setting [1] turned out to be 110 nM.

`C=CCNc1ccc(-c2ccco2)cc1C(=O)c1cc(OC)c(OC)c(OC)c1` [Compound 238, (2-(allylamino)-5-(furan-2-yl)phenyl)(3,4,5-trimethoxyphenyl)methanone]: the IC50 under setting [1] worked out at 340 nM. Regarding `COc1cc(C(=O)c2ccc(-c3csc(NC(C)=O)n3)cc2-n2cncn2)cc(OC)c1OC` [Compound 560, N-(4-(3-(1H-1,2,4-triazol-1-yl)-4-(3,4,5-trimethoxybenzoyl)phenyl)thiazol-2-yl)acetamide], the IC50 under setting [1] amounted to 90 nM.

As for `O=C(c1ccc(-c2ccco2)cc1-n1cncn1)c1c(F)c(F)c(F)c(F)c1F` [Compound 446, (4-(furan-2-yl)-2-(1H-1,2,4,-triazol-1-yl)phenyl)(pentafluorophenyl)methanone], under setting [1], the IC50 was 170 nM. As for `COc1cc(C(=O)c2cc(-c3nccs3)ccc2NC=O)cc(OC)c1OC` [Compound 316, N-(4-(thiazol-2-yl)-2-(3,4,5-trimethoxybenzoyl)phenyl)formamide], the IC50 under setting [1] was determined as 140 nM. As for `COc1cc(C(=O)c2cc(-c3nccs3)ccc2-c2cncnc2)cc(OC)c1OC` [Compound 365, (2-(pyrimidin-5-yl)-5-(thiazol-2-yl)phenyl)(3,4,5-trimethoxyphenyl)methanone], the IC50 under setting [1] amounted to 70 nM. Consider `COc1cc(C(=O)c2cc(-c3ccccn3)ccc2N)cc(OC)c1OC` [Compound 293, (2-amino-5-(pyridin-2-yl)phenyl)(3,4,5-trimethoxyphenyl)methanone], for which the IC50 under setting [1] was 17 nM. On to `COc1cc(C(=O)c2cc(-c3ccc[nH]3)ccc2N)cc(OC)c1OC` [Compound 597, (2-amino-5-(1H-pyrrol-2-yl)phenyl)(3,4,5-trimethoxyphenyl)methanone], for which the IC50 under setting [1] turned out to be 220 nM. On the same count and under the same terms, for `COc1cc(C(=O)c2cc(-c3ncco3)ccc2-n2cncn2)cc(OC)c1OC` [Compound 359, (5-(oxazol-2-yl)-2-(H-1,2,4-triazol-1-yl)phenyl)(3,4,5-trimethoxyphenyl)methanone] the value was 100 nM; for `COc1cc(C(=O)c2cc(-c3nccs3)ccc2NC(C)=O)cc(OC)c1OC` [Compound 277, N-(4-(thiazol-2-yl)-2-(3,4,5-trimethoxybenzoyl)phenyl)acetamide], 110 nM.

In the case of `COc1cc(C(=O)c2cc(-c3ccco3)ccc2-n2ccnn2)cc(OC)c1OC` [Compound 379, (5-(furan-2-yl)-2-(1H-1,2,3,-triazol-1-yl)phenyl)(3,4,5-trimethoxyphenyl)methanone], the IC50 under setting [1] turned out to be 110 nM. Still for that read-out and setting: for `COc1cc(C(=O)c2ccc(-c3cccc(C#N)c3)cc2-n2cncn2)cc(OC)c1OC` [Compound 506, 3′-[1,2,4]triazol-1-yl-4′-(3,4,5-trimethoxybenzoyl)-biphenyl-3-carbonitrile] the value was 160 nM; for `COc1cc(C(=O)c2ccc(-c3nccs3)cc2OS(C)(=O)=O)cc(OC)c1OC` [Compound 484, methanesulfonic acid 5-(thiazol-2-yl)-2-(3,4,5-trimethoxybenzoyl)phenyl ester], 4240 nM. `COc1cc(C(=O)c2cc(-c3ccco3)ccc2NCCO)cc(OC)c1OC` [Compound 323, (5-(furan-2-yl)-2-(2-hydroxyethylamino)phenyl)(3,4,5-trimethoxyphenyl)methanone]: under setting [1], the IC50 worked out at 170 nM. As to `COc1cc(C(=O)c2ccc(-c3cncnc3)cc2-n2cncn2)cc(OC)c1OC` [Compound 455, (4-(pyrimidin-5-yl)-2-(1H-1,2,4,-triazol-1-yl)phenyl)(3,4,5-trimethoxyphenyl)methanone], the IC50 under setting [1] stood at 3100 nM. With `COc1cc(C(=O)c2ccc(-c3csc(C(C)(C)O)n3)cc2-n2cncn2)cc(OC)c1OC` [Compound 563, (4-(2-(2-hydroxypropan-2-yl)thiazol-4-yl)-2-(1H-1,2,4-triazol-1-yl)phenyl)(3,4,5-trimethoxyphenyl)methanone], under setting [1], the IC50 was 250 nM. Turning to `COc1cc(C(=O)c2cc(-c3nccs3)ccc2N)cc(CO)c1OC` [Compound 286, (2-amino-5-(thiazol-2-yl)phenyl)(3-(hydroxymethyl)-4,5-dimethoxyphenyl)methanone], under setting [1], the IC50 is 70 nM.

Regarding `COc1ccc(-c2ccc(N)c(C(=O)c3cc(OC)c(OC)c(OC)c3)c2)cc1` [Compound 226, (4-amino-4′-methoxybiphenyl-3-yl)(3,4,5-trimethoxyphenyl)methanone], the IC50 came to 370 nM.

Turning to `COc1cc(C(=O)c2ccc(-c3cccc(NS(C)(=O)=O)c3)cc2N)cc(OC)c1OC` [Compound 494, N-(3′-amino-4′-(3,4,5-trimethoxybenzoyl)-biphenyl-3-yl)methanesulfonamide], under setting [1], the IC50 worked out at 120 nM.

As for `COc1cc(C(=O)c2cc(-c3ncco3)ccc2NC(C)=O)cc(OC)c1OC` [Compound 296, N-(4-(oxazol-2-yl)-2-(3,4,5-trimethoxybenzoyl)phenyl)acetamide], the IC50 under setting [1] amounted to 1230 nM. As to `COc1cc(C(=O)c2cc(-c3cccs3)ccc2NC(C)=O)cc(OC)c1OC` [Compound 279, N-(4-(thiophen-2-yl)-2-(3,4,5-trimethoxybenzoyl)phenyl)acetamide], under setting [1], the IC50 amounted to 130 nM.
